Test results published in the supplement of paper PMC10307832.

Legend:
Assay in all cases: relative viability (nuclei count vs DMSO), 5 days (fraction); higher = more cells survive
[1] = system: LOU-NH91
Summary of the method: (§1)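 Relative viability equals treated-well nuclei counts divided by vehicle-well nuclei counts. Counts came from 4× images of lung cancer cell lines grown in 1536-well plates for 5 days after pin-tool dosing on the day after seeding. Dosing used one drug alone or a fixed anchor-drug dose plus five library-drug doses (not always all listed) in √10 steps, and values are medians of duplicate plates.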

[2] = system: HARA
Summary of the method: as §1

[3] = system: NCI-H650
Summary of the method: as §1

[4] = system: NCI-H2126
Summary of the method: as §1

[5] = system: NCI-H1666
Summary of the method: as §1

[6] = system: NCI-H441
Summary of the method: as §1

[7] = system: NCI-H2347
Summary of the method: as §1

[8] = system: NCI-H1993
Summary of the method: as §1

[9] = system: NCI-H23
Summary of the method: as §1

[10] = system: NCI-H838
Summary of the method: as §1

[11] = system: 201T
Summary of the method: as §1

[12] = system: NCI-H647
Summary of the method: as §1

[13] = system: NCI-H2023
Summary of the method: as §1

[14] = system: BEN
Summary of the method: as §1

[15] = system: LCLC-103H
Summary of the method: as §1

[16] = system: NCI-H727
Summary of the method: as §1

[17] = system: NCI-H1395
Summary of the method: as §1

[18] = system: NCI-H2009
Summary of the method: as §1

[19] = system: NCI-H3122
Summary of the method: as §1

[20] = system: NCI-H596
Summary of the method: as §1

[21] = system: NCI-H2087
Summary of the method: as §1

[22] = system: EMC-BAC-2
Summary of the method: as §1

[23] = system: HCC-44
Summary of the method: as §1

In the case of C[C@@H]1CN(CC(=O)Nc2ccc3c(c2)Cc2cccc(-c4cc(=O)cc(N5CCOCC5)o4)c2S3)C[C@H](C)O1 + Cc1nc(NC(=O)N2CCC[C@H]2C(N)=O)sc1-c1ccnc(C(C)(C)C(F)(F)F)c1 [Alpelisib] (partner 2 µM), the relative viability ([1]; first compound 0.04 µM) is reported as 0.756, the relative viability ([1]; first compound 0.1265 µM) is reported as 0.72 and the relative viability ([1]; first compound 0.4 µM) is reported as 0.692. It also gave a relative viability ([1]; first compound 4 µM) of 0.689, a relative viability ([2]; first compound 0.04 µM) of 0.81 and a relative viability ([2]; first compound 0.1265 µM) of 0.637. It also gave a relative viability ([2]; first compound 0.4 µM) of 0.711, a relative viability ([2]; first compound 4 µM) of 0.78 and a relative viability ([3]; first compound 0.04 µM) of 0.949. The relative viability ([3]; first compound 0.1265 µM) was 1.06, the relative viability ([3]; first compound 0.4 µM) was 1.15 and the relative viability ([3]; first compound 4 µM) was 0.895. For the same molecule, the relative viability ([4]; first compound 0.04 µM) was 0.807, the relative viability ([4]; first compound 0.1265 µM) was 0.765 and the relative viability ([4]; first compound 0.4 µM) was 0.738. The relative viability ([4]; first compound 4 µM) was 0.762, the relative viability ([5]; first compound 0.04 µM) was 1.17 and the relative viability ([5]; first compound 0.1265 µM) was 1.12. The relative viability ([5]; first compound 0.4 µM) was 0.964, the relative viability ([5]; first compound 4 µM) was 0.654 and the relative viability ([6]; first compound 0.04 µM) was 0.942. It also gave a relative viability ([6]; first compound 0.4 µM) of 0.675, a relative viability ([6]; first compound 4 µM) of 0.584 and a relative viability ([7]; first compound 0.04 µM) of 0.981. For the same molecule, the relative viability ([7]; first compound 0.1265 µM) was 1.09, the relative viability ([7]; first compound 0.4 µM) was 1.08 and the relative viability ([7]; first compound 4 µM) was 0.979. The relative viability ([8]; first compound 0.04 µM) was 0.641, the relative viability ([8]; first compound 0.1265 µM) was 0.685 and the relative viability ([8]; first compound 0.4 µM) was 0.592. It also gave a relative viability ([8]; first compound 4 µM) of 0.62, a relative viability ([9]; first compound 0.04 µM) of 0.715 and a relative viability ([9]; first compound 0.1265 µM) of 0.639. It also gave a relative viability ([9]; first compound 0.4 µM) of 0.624, a relative viability ([9]; first compound 4 µM) of 0.727 and a relative viability ([10]; first compound 0.04 µM) of 0.971. For the same molecule, the relative viability ([10]; first compound 0.1265 µM) was 0.913, the relative viability ([10]; first compound 0.4 µM) was 0.906 and the relative viability ([10]; first compound 4 µM) was 0.784. For the same molecule, the relative viability ([11]; first compound 0.04 µM) was 1.04, the relative viability ([11]; first compound 0.1265 µM) was 1.02 and the relative viability ([11]; first compound 0.4 µM) was 0.943. For the same molecule, the relative viability ([11]; first compound 4 µM) was 0.95, the relative viability ([12]; first compound 0.04 µM) was 1.26 and the relative viability ([12]; first compound 0.1265 µM) was 1.08. The relative viability ([12]; first compound 0.4 µM) was 1.08, the relative viability ([12]; first compound 4 µM) was 0.766 and the relative viability ([13]; first compound 0.04 µM) was 0.69. For the same molecule, the relative viability ([13]; first compound 0.1265 µM) was 0.579, the relative viability ([13]; first compound 0.4 µM) was 0.407 and the relative viability ([13]; first compound 4 µM) was 0.473. For the same molecule, the relative viability ([14]; first compound 0.04 µM) was 1, the relative viability ([14]; first compound 0.1265 µM) was 0.968 and the relative viability ([14]; first compound 0.4 µM) was 1.03. The relative viability ([14]; first compound 4 µM) was 1.04, the relative viability ([15]; first compound 0.04 µM) was 1.02 and the relative viability ([15]; first compound 0.1265 µM) was 0.892. The relative viability ([15]; first compound 0.4 µM) was 0.845, the relative viability ([15]; first compound 4 µM) was 1.02 and the relative viability ([16]; first compound 0.04 µM) was 0.685. The relative viability ([16]; first compound 0.1265 µM) was 0.612, the relative viability ([16]; first compound 0.4 µM) was 0.502 and the relative viability ([16]; first compound 4 µM) was 0.479. The relative viability ([17]; first compound 0.04 µM) was 0.958, the relative viability ([17]; first compound 0.1265 µM) was 1.08 and the relative viability ([17]; first compound 0.4 µM) was 1.05. For the same molecule, the relative viability ([17]; first compound 4 µM) was 1.08, the relative viability ([18]; first compound 0.04 µM) was 1.23 and the relative viability ([18]; first compound 0.1265 µM) was 1.09. It also gave a relative viability ([18]; first compound 0.4 µM) of 1.09, a relative viability ([18]; first compound 4 µM) of 0.974 and a relative viability ([19]; first compound 0.04 µM) of 0.861. The relative viability ([19]; first compound 0.1265 µM) was 0.682, the relative viability ([19]; first compound 0.4 µM) was 0.629 and the relative viability ([19]; first compound 4 µM) was 0.699. For the same molecule, the relative viability ([20]; first compound 0.04 µM) was 0.513, the relative viability ([20]; first compound 0.1265 µM) was 0.451 and the relative viability ([20]; first compound 0.4 µM) was 0.384. The relative viability ([20]; first compound 4 µM) was 0.428, the relative viability ([21]; first compound 0.04 µM) was 1.49 and the relative viability ([21]; first compound 0.1265 µM) was 1.2. The relative viability ([21]; first compound 0.4 µM) was 1.2, the relative viability ([21]; first compound 4 µM) was 0.837 and the relative viability ([22]; first compound 0.04 µM) was 0.748. It also gave a relative viability ([22]; first compound 0.1265 µM) of 0.771, a relative viability ([22]; first compound 0.4 µM) of 0.726 and a relative viability ([22]; first compound 4 µM) of 0.73. For the same molecule, the relative viability ([23]; first compound 0.04 µM) was 0.774, the relative viability ([23]; first compound 0.1265 µM) was 0.744 and the relative viability ([23]; first compound 0.4 µM) was 0.615. The relative viability ([23]; first compound 4 µM) was 0.582.
